# Columns and labels:
# [1] = system: experimental autoimmune encephalomyelitis (EAE); experiment: MOG peptide-induced EAE, treatment from the day of EAE onset; format: in vivo, C57BL/6 mice; conditions: 2 mg/mouse i.p. daily from EAE onset until day 26
# Protocol: Tests were also carried out to discover whether DHEA and its spiro-analogs were protective after the onset of experimental autoimmune encephalomyelitis (EAE). For these tests, acute EAE was induced in C57BL/6 mice, as previously described. […] Mice were monitored daily in a blinded fashion for clinical symptoms (paralysis). Tissues (brain, spinal cord, DLNs) were collected in order to perform histological evaluation (staining with H&E on brain and spinal cord sections) and ex vivo cultures for measurement of T cell responses and cytokine release.
# [2] = system: ongoing EAE in recipient mice; experiment: Adoptive transfer of DLN cells from treated EAE donors into recipients with ongoing EAE; format: in vivo
# From the text: The donor DLN cells were obtained on day 17, which is the peak of disease for control mice. This protection was observed until day 28-30 when the mice were euthanized.
# EAE = EAE after cessation of 15 days of treatment, 45 additional days of monitoring; format: in vivo, C57BL/6 mice
# From the text: The mice continued to be monitored daily for clinical signs of EAE for 45 additional days thereafter.
smiles,measurement,setting,value
"C[C@]12CC[C@H](O)CC1=CC[C@@H]1[C@@H]2CC[C@]2(C)C(=O)CC[C@@H]12 [DHEA, dehydroepiandrosterone]",degree of paralysis,[1],decreased
same,clinical course,[1]; FIG. 11,improvement/reversal
same,mean maximum score,[1]; FIG. 12,decrease
same,recovery of recipients,"[2]; DLN cell transfer, vs PBS-treated donors, FIG. 24",rapid recovery
same,mean maximum disease score,"[2]; DLN cell transfer, vs PBS-treated donors, FIG. 25",significant reduction
same,EAE development in recipients,"[2]; DLN cells of donors treated days 12-17, vs DLN cells from PBS-treated donors, FIG. 24",confer suppression
same,ex vivo proliferation to MOG35-55,"[2]; DLN cells of recipients, FIG. 26a",significantly decreased
same,levels of supernatant IFN-γ,"[2]; DLN cells of recipients, FIG. 26b",decreased levels
same,levels of supernatant IL-17,"[2]; DLN cells of recipients, FIG. 26c",decreased levels
same,recruitment of CD11c+ dendritic cells,"[2]; draining lymph nodes of recipients, FIG. 27a",substantially decreased
same,recruitment of IL-17 secreting T cells,"[2]; draining lymph nodes of recipients, FIG. 27b",substantially decreased
same,recruitment of CD4+ Foxp3+ regulatory T cells,"[2]; draining lymph nodes of recipients, FIG. 27c",increased
same,protection from EAE development after cessation of treatment,"EAE; treated 15 days from around day 13, monitored 45 additional days, FIGS. 34 and 35",remained protected
same,disease score after cessation of treatment,"EAE; treated 15 days, monitored 45 additional days, vs control mice",remained unchanged

# Reference: US20120225852A1, “USE OF STEROID COMPOUNDS” (priority 2009, published 2012)
